Experimental data reported in article PMC5028030, “Costimulatory Effects of an Immunodominant Parasite Antigen Paradoxically Prevent Induction of Optimal CD8 T Cell Protective Immunity” (PLoS Pathogens, 2016).
“Also recorded” adds a separate entry of the source. Peptide text beside a SMILES is read from it.

Tests used:
naïve CD8^+ T cells = experiment: CD8^+ T cell costimulation assay; format: cell-based, BALB/c mouse; conditions: inhibitor added to TS/PMA activated CD8^+ T cell cultures
Method: (§1) Fig 6 TS enzymatic activity is associated with costimulatory effects. In panel A, enzymatic activities of WT and TSKd1 mutant proteins were determined in lysates and supernatants of 293T cells transfected with WT TS and TSKd1 null DNA using fluorometric TS enzymatic activity assays. […] CD8^+ T cells from naïve 4–5 week old BALB/c mice were purified by positive magnetic bead selection and incubated with suboptimal doses of PMA (12.5ng/ml) ± WT or TSKd1 null rTS. After 3 days, proliferation was measured by ^3H-Thymidine incorporation. Shown are incorporated ^3H-Thymidine counts per minute (CPM) above suboptimal PMA treatment alone. Similar TS costimulation assays using naïve CD8^+ T cells were conducted with CD45 inhibitor PTP or Src-family kinase inhibitor PP2 added (C). In panel D, increasing concentrations of TSKd1 peptide were added to constant amounts of WT TS in TS enzyme assays. […]
CD8^+ T cells purified by positive Miltenyi magnetic bead selection from naïve 4–5 week old BALB/c mice were added to 96-well flat bottom plates (2x10^5 cells/well) and stimulated with suboptimal doses of PMA (12.5 ng/ml) with or without recombinant WT vs TSKd1 null TS protein (25–100 μg/ml) similar to TS costimulatory assays conducted previously. […] Ultima Gold F scintillation fluid was added and filtermats counted using a Perkin Elmer TriLux MicroBeta 1450 instrument. […]

WT TS = WT TS (Trypanosoma cruzi, UniProt P23253); experiment: Inhibition of TS enzymatic activity (MuNANA hydrolysis); format: biochemical
Chain of WT TS (P23253 whole entry): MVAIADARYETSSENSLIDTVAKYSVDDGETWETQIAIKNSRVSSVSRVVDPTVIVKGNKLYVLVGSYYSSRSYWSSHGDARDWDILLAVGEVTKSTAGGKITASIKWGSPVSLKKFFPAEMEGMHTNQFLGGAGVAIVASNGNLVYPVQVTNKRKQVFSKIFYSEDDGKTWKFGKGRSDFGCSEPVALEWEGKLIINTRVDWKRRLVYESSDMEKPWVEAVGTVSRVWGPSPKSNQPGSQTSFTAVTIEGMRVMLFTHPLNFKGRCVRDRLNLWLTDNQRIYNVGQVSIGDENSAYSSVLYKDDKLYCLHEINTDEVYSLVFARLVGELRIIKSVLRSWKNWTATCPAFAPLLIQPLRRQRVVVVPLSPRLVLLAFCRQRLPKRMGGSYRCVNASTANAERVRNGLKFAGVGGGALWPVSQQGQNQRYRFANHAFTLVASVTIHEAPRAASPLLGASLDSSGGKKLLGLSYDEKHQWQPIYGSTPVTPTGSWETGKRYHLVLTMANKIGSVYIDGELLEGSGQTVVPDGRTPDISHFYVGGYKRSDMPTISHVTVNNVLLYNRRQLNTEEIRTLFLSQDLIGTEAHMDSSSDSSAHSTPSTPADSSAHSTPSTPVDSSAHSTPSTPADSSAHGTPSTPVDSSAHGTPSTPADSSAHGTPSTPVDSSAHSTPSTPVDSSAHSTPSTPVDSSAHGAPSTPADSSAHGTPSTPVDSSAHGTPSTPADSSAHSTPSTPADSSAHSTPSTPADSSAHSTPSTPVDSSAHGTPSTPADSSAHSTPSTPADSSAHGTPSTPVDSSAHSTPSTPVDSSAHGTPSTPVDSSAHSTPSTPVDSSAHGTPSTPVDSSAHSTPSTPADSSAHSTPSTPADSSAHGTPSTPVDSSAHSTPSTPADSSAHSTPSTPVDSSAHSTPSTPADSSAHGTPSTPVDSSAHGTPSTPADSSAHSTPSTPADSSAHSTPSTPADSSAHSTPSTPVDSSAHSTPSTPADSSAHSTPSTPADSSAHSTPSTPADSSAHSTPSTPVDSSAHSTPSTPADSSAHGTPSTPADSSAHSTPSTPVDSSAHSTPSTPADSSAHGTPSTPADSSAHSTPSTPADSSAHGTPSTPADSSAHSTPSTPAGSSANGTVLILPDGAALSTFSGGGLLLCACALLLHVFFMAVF
Method: as §1, with “alone.” for “alone. Similar TS costimulation assays using naïve CD8^+ T cells were conducted with CD45 inhibitor PTP or Src-family kinase inhibitor PP2 added (C). In panel D, increasing concentrations of TSKd1 peptide were added to constant amounts of WT TS in TS enzyme assays.”
Trans-sialidase enzymatic activity was assayed as described previously. […] The acid elutions were incubated at 95°C for 45 minutes, the reactions neutralized with glycine/NaOH (pH 10) and released 4-MU measured by fluorescence emission at 450nm and compared to a standard curve. […] The reaction was continuously monitored in a SpectraMax i3 Multi-Mode Detection Platform (Molecular Devices) after pre-incubation of the enzyme with the peptide for 10 min at room temperature. The residual activity at each concentration of TSKd1 was obtained by dividing the slope calculated at each concentration of TSKd1 (Vi) by the initial velocity determined in the absence of peptide (V0). […]

CD4^+ T cells = test system: CD4^+ T cells; parameters: method as in manuscript in preparation; conditions: after TS vaccination; I-A^d-restricted; ref manuscript in preparation; cited from earlier work

CC(C)(C)C(=O)Nc1ccc2c(c1)C(=O)C(=O)c1ccccc1-2 [PTP, N-[(9-10-dioxo-9,10-dihydro-phenanthren-2-yl)-2,2-dimethyl-propionamide]]
inhibition of TS costimulatory activity (naïve CD8^+ T cells): blocked; also recorded: prevent co-stimulation of naïve CD8^+ T cells

CC[C@H](C)[C@H](N)C(=O)N[C@@H](Cc1ccc(O)cc1)C(=O)N[C@@H](CC(N)=O)C(=O)N[C@H](C(=O)NCC(=O)N[C@@H](CCC(N)=O)C(=O)N[C@H](C(=O)N[C@@H](CO)C(=O)N[C@H](C(=O)O)[C@@H](C)CC)C(C)C)C(C)C [TSKd1, IYNVGQVSI] (H-IYNVGQVSI-OH)
IC50 (WT TS): 20 ± 3 µM

KVTERVVHSFRLPALVNV [p7]
CD4^+ T cell response to peptide (CD4^+ T cells): most potent CD4^+ T cell responses of any peptide tested
